The structures appear in SMILES notation. The source made the active and inactive calls. How the calls were made is not given here.

The data set concerns CCRIS mutagenicity, Ames/micronucleus/aberration tests. The experiment in a line: CCRIS mutagenicity studies.
Where [1] appears, read: Test System: AMES SALMONELLA TYPHIMURIUM, Strain/Indicator: TA98, Metabolic Activation: NONE, Method: PREINCUBATION
Where [2] appears, read: Test System: AMES SALMONELLA TYPHIMURIUM, Strain/Indicator: TA100, Metabolic Activation: NONE, Method: PREINCUBATION
Where [3] appears, read: Test System: AMES SALMONELLA TYPHIMURIUM, Strain/Indicator: TA97, Metabolic Activation: NONE, Method: STANDARD PLATE.
The mark [4] stands for this setting: Test System: AMES SALMONELLA TYPHIMURIUM, Strain/Indicator: TA98, Metabolic Activation: NONE, Method: STANDARD PLATE.
The mark [5] stands for this setting: Test System: AMES SALMONELLA TYPHIMURIUM, Strain/Indicator: TA100, Metabolic Activation: NONE, Method: STANDARD PLATE.
[6] abbreviates: Test System: AMES SALMONELLA TYPHIMURIUM, Strain/Indicator: TA102, Metabolic Activation: NONE, Method: STANDARD PLATE.
[7] abbreviates: Test System: AMES SALMONELLA TYPHIMURIUM, Strain/Indicator: TA98, Metabolic Activation: HAMSTER, LIVER, S-9, AROCLOR 1254 (10%), Method: PREINCUBATION
The mark [8] stands for this setting: Test System: AMES SALMONELLA TYPHIMURIUM, Strain/Indicator: TA98, Metabolic Activation: RAT, LIVER, S-9, AROCLOR 1254 (10%), Method: PREINCUBATION
[9] abbreviates: Test System: AMES SALMONELLA TYPHIMURIUM, Strain/Indicator: TA100, Metabolic Activation: HAMSTER, LIVER, S-9, AROCLOR 1254 (10%), Method: PREINCUBATION
Where [10] appears, read: Test System: AMES SALMONELLA TYPHIMURIUM, Strain/Indicator: TA100, Metabolic Activation: RAT, LIVER, S-9, AROCLOR 1254 (10%), Method: PREINCUBATION
Setting [11] is: Test System: AMES SALMONELLA TYPHIMURIUM, Strain/Indicator: TA1535, Metabolic Activation: HAMSTER, LIVER, S-9, AROCLOR 1254 (10%), Method: PREINCUBATION
Setting [12] is: Test System: AMES SALMONELLA TYPHIMURIUM, Strain/Indicator: TA1535, Metabolic Activation: NONE, Method: PREINCUBATION
Where [13] appears, read: Test System: AMES SALMONELLA TYPHIMURIUM, Strain/Indicator: TA1535, Metabolic Activation: RAT, LIVER, S-9, AROCLOR 1254 (10%), Method: PREINCUBATION
Where [14] appears, read: Test System: AMES SALMONELLA TYPHIMURIUM, Strain/Indicator: TA1537, Metabolic Activation: HAMSTER, LIVER, S-9, AROCLOR 1254 (10%), Method: PREINCUBATION
The mark [15] stands for this setting: Test System: AMES SALMONELLA TYPHIMURIUM, Strain/Indicator: TA1537, Metabolic Activation: NONE, Method: PREINCUBATION
The mark [16] stands for this setting: Test System: AMES SALMONELLA TYPHIMURIUM, Strain/Indicator: TA1537, Metabolic Activation: RAT, LIVER, S-9, AROCLOR 1254 (10%), Method: PREINCUBATION

For `Nn1nnc2c([nH]c3ccccc32)c1=O`, the mutagenic call (Test System: AMES SALMONELLA TYPHIMURIUM, Strain/Indicator: TA97, Metabolic Activation: NONE, Method: PREINCUBATION) is “active; positive”; the mutagenic call (Test System: AMES SALMONELLA TYPHIMURIUM, Strain/Indicator: TA97, Metabolic Activation: S-9 (10%), Method: PREINCUBATION) is “active; positive”; the mutagenic call under setting [1] is “active; positive”; the mutagenic call (Test System: AMES SALMONELLA TYPHIMURIUM, Strain/Indicator: TA98, Metabolic Activation: S-9 (10%), Method: PREINCUBATION) was “active; positive”; the mutagenic call under setting [2] was “active; positive”; the mutagenic call (Test System: AMES SALMONELLA TYPHIMURIUM, Strain/Indicator: TA100, Metabolic Activation: S-9 (10%), Method: PREINCUBATION) is “active; positive”. Further, the mutagenic call reads like this: (Test System: AMES SALMONELLA TYPHIMURIUM, Strain/Indicator: TA102, Metabolic Activation: NONE, Method: PREINCUBATION) “active; positive”; (Test System: AMES SALMONELLA TYPHIMURIUM, Strain/Indicator: TA102, Metabolic Activation: S-9 (10%), Method: PREINCUBATION) “active; positive”.

For the compound `O=c1c2ccccc2c(=O)c2c1ccc1c3ccc4c(=O)c5c(ccc6c7ccc8c(=O)c9ccccc9c(=O)c8c7[nH]c65)c(=O)c4c3[nH]c12`, the mutagenic call is “active; positive” (Test System: Ames Salmonella typhimurium, Strain/Indicator: TA98, Metabolic Activation: None, Method: Preincubation); “inactive; negative” (Test System: Ames Salmonella typhimurium, Strain/Indicator: TA100, Metabolic Activation: None, Method: Preincubation); “inactive; negative” (Test System: Ames Salmonella typhimurium, Strain/Indicator: TA102, Metabolic Activation: None, Method: Preincubation); “inactive; negative” (Test System: Ames Salmonella typhimurium, Strain/Indicator: TA1535, Metabolic Activation: None, Method: Preincubation).

Turning to `Cn1c(CC(=O)OCCCl)c(C(=O)O)c2ccccc21`, the mutagenic call was “inactive; negative” under setting [3]; “inactive; negative” (Test System: AMES SALMONELLA TYPHIMURIUM, Strain/Indicator: TA97, Metabolic Activation: RAT, LIVER, S-9, AROCLOR 1254 (4%, 10%), Method: STANDARD PLATE); “active; positive” under setting [4]; “inactive; negative” (Test System: AMES SALMONELLA TYPHIMURIUM, Strain/Indicator: TA98, Metabolic Activation: RAT, LIVER, S-9, AROCLOR 1254 (4%, 10%), Method: STANDARD PLATE); “inactive; negative” under setting [5]; “inactive; negative” (Test System: AMES SALMONELLA TYPHIMURIUM, Strain/Indicator: TA100, Metabolic Activation: RAT, LIVER, S-9, AROCLOR 1254 (4%, 10%), Method: STANDARD PLATE). The mutagenic call under setting [6] was “inactive; negative” and the mutagenic call (Test System: AMES SALMONELLA TYPHIMURIUM, Strain/Indicator: TA102, Metabolic Activation: RAT, LIVER, S-9, AROCLOR 1254 (4%, 10%), Method: STANDARD PLATE) is “inactive; negative”.

As to `O=c1[nH]c(=O)n(Cl)c(=O)n1Cl`, the mutagenic call under setting [7] was “inactive; negative”; the mutagenic call under setting [1] is “inactive; negative”; the mutagenic call under setting [8] is “inactive; negative”; the mutagenic call under setting [9] was “inactive; negative”; the mutagenic call under setting [2] is “inactive; negative”; the mutagenic call under setting [10] was “inactive; negative”. The mutagenic call under setting [11] was “inactive; negative”; the mutagenic call under setting [12] is “inactive; negative”; the mutagenic call under setting [13] is “inactive; negative”; the mutagenic call under setting [14] is “inactive; negative”; the mutagenic call under setting [15] is “inactive; negative”; the mutagenic call under setting [16] is “inactive; negative”.

For the compound `Cc1ccc(/C(C#N)=C\C=C\c2ccccc2[N+](=O)[O-])cc1`, the mutagenic call (Test System: AMES SALMONELLA TYPHIMURIUM, Strain/Indicator: TA97A, Metabolic Activation: NONE, Method: STANDARD PLATE) is “active; positive”.

Consider `CC(=O)O.CC(=O)O.[O]=[U]=[O]`, for which the mutagenic call (Test System: Chinese hamster ovary cells, Strain/Indicator: EM9 (HPRT)/6-Thioguanine, Metabolic Activation: None) was “active; positive”.

Consider `O=C(OCc1cccc([N+](=O)[O-])c1)c1ccccc1`, for which the mutagenic call is, setting by setting: under setting [1], “inactive; negative”; under setting [2], “inactive; negative”; (Test System: AMES SALMONELLA TYPHIMURIUM, Strain/Indicator: TA100, Metabolic Activation: RAT, LIVER, S-9, AROCLOR 1254, Method: PREINCUBATION) “inactive; negative”.

Regarding `CCCOc1cc2c(c3ccc4ccccc4c13)CCC2=O`, the mutagenic call (Test System: AMES SALMONELLA TYPHIMURIUM, Strain/Indicator: TA100, Metabolic Activation: RAT, LIVER, S-9, AROCLOR 1254, Method: STANDARD PLATE) was “inactive; negative”.

On to `c1ccc2cc3c(cc2c1)c1c(c2ccccc23)O1`, for which the mutagenic call under setting [5] is “active; positive”.

As for `Nc1n[nH]c(N)n1`, the mutagenic call was “inactive; negative” under setting [3]; “inactive; negative” (Test System: AMES SALMONELLA TYPHIMURIUM, Strain/Indicator: TA97, Metabolic Activation: RAT, LIVER, S-9, AROCLOR, Method: STANDARD PLATE); “inactive; negative” under setting [7]; “inactive; negative” under setting [1]; “inactive; negative” under setting [4]; “inactive; negative” under setting [8]. Moreover, the mutagenic call (Test System: AMES SALMONELLA TYPHIMURIUM, Strain/Indicator: TA98, Metabolic Activation: RAT, LIVER, S-9, AROCLOR, Method: STANDARD PLATE) was “inactive; negative”; the mutagenic call under setting [9] is “inactive; negative”; the mutagenic call under setting [2] was “inactive; negative”; the mutagenic call under setting [5] is “inactive; negative”; the mutagenic call under setting [10] was “inactive; negative”; the mutagenic call (Test System: AMES SALMONELLA TYPHIMURIUM, Strain/Indicator: TA100, Metabolic Activation: RAT, LIVER, S-9, AROCLOR, Method: STANDARD PLATE) is “inactive; negative”. Moreover, the mutagenic call is, setting by setting: under setting [6], “active; positive”; (Test System: AMES SALMONELLA TYPHIMURIUM, Strain/Indicator: TA102, Metabolic Activation: RAT, LIVER, S-9, AROCLOR 1254, Method: STANDARD PLATE) “active; positive”; under setting [11], “inactive; negative”; under setting [12], “inactive; negative”; (Test System: AMES SALMONELLA TYPHIMURIUM, Strain/Indicator: TA1535, Metabolic Activation: NONE, Method: STANDARD PLATE) “inactive; negative”; under setting [13], “inactive; negative”. Further, the mutagenic call was “inactive; negative” (Test System: AMES SALMONELLA TYPHIMURIUM, Strain/Indicator: TA1535, Metabolic Activation: RAT, LIVER, S-9, AROCLOR, Method: STANDARD PLATE); “inactive; negative” under setting [14]; “inactive; negative” under setting [15]; “inactive; negative” under setting [16]; “inactive; negative” (Test System: UDS RODENT HEPATOCYTES, Strain/Indicator: THY INCORP (NON-S-PHASE), Metabolic Activation: NONE, Method: AUTORADIOGRAPHY).
